Measurements: article PMC6522510 (Nature Communications, 2019)
Structures can show the parent of a compound that is named as a salt. Where two headings read alike, the source gives them in different places.

Tests used:
Set-up in all cases: species or system AML cell lines (8); Primary HTS, single concentration about 10 uM, Cell Titer Glo viability; log10 luminescence, per cent inhibition relative to cycloheximide control
Settings in all cases: 72 h, relative to cycloheximide control, log10 luminescence, inhibitor
[1] = test system: CMK
[2] = test system: M07e
[3] = test system: MOLM-13
[4] = test system: CHRF288-11
[5] = test system: CMS
[6] = test system: MV4-11
[7] = test system: U937
[8] = test system: ML-2

Structure (SMILES)	CMK %inh ([1]; CMK %inh, 10 µM) [%]	M07e %inh ([2]; M07e %inh, 10 µM) [%]	MOLM-13 %inh ([3]; MOLM-13 %inh, 10 µM) [%]	CHRF288-11 %inh ([4]; CHRF288-11 %inh, 10 µM) [%]	CMS %inh ([5]; CMS %inh, 10 µM) [%]	MV4-11 %inh ([6]; MV4-11 %inh, 10 µM) [%]	U937 %inh ([7]; U937 %inh, 10 µM) [%]	ML-2 %inh ([8]; ML-2 %inh, 10 µM) [%]	CMK %inh [1] [%]	M07e %inh [2] [%]	MOLM-13 %inh [3] [%]	CHRF288-11 %inh [4] [%]	CMS %inh [5] [%]	MV4-11 %inh [6] [%]	U937 %inh [7] [%]	ML-2 %inh [8] [%]
CO[C@H]1/C=C/O[C@@]2(C)Oc3c(C)c(O)c4c(O)c(c(/C=N/N5CCN(C6CCCC6)CC5)c(O)c4c3C2=O)NC(=O)/C(C)=C\C=C\[C@H](C)[C@H](O)[C@@H](C)[C@@H](O)[C@@H](C)[C@H](OC(C)=O)[C@@H]1C [SJ000556738-2, RIFAPENTINE]	-1.103	2.598	7.481	-2.807	24.93	5.68	26.01	7.469	–	–	–	–	–	–	–	–
C[C@@H]1C[C@H]2[C@@H]3C[C@H](F)C4=CC(=O)C=C[C@]4(C)[C@@]3(F)[C@@H](O)C[C@]2(C)[C@@]1(OC(=O)c1ccco1)C(=O)SCF [SJ000556747-1, FLUTICASONE FUROATE]	–	–	–	–	–	–	–	–	4.028	0.03036	2.731	5.244	42.17	10.07	15.51	5.949
Cc1c(F)c(N2CCNC(C)C2)cc2c1c(=O)c(C(=O)O)cn2C1CC1 (stereo not shown) [SJ000556748-1, GREPAFLOXACIN]	–	–	–	–	–	–	–	–	-2.149	-0.4769	27.08	7.335	-1.062	-0.8156	0.03292	-2.485
Nc1nc(=O)n([C@@H]2CS[C@H](CO)O2)cc1F [SJ000556750-1, EMTRICITABINE]	–	–	–	–	–	–	–	–	2.775	-0.1929	20.59	2.371	-3.992	-2.268	-2.394	2.01
CCOCCn1c(N2CCCN(C)CC2)nc2ccccc21 [SJ000556751-1, EMEDASTINE DIFUMARATE]	–	–	–	–	–	–	–	–	-0.9686	0.9271	8.131	-0.4103	-0.1534	-1.235	0.3803	1.809
CCCCc1ncc(/C=C(\Cc2cccs2)C(=O)O)n1Cc1ccc(C(=O)O)cc1 [SJ000556755-1, EPROSARTAN MESYLATE]	–	–	–	–	–	–	–	–	1.513	2.786	-0.5594	1.693	2.254	-5.649	2.452	1.173
CO/N=C1\CN(c2nc3c(cc2F)c(=O)c(C(=O)O)cn3C2CC2)CC1CN (stereo not shown) [SJ000556758-1, GEMIFLOXACIN MESILATE]	–	–	–	–	–	–	–	–	10.74	5.532	8.66	4.811	4.675	8.469	9.491	0.2536
CCCCCCCN(CC)CCCC(O)c1ccc(NS(C)(=O)=O)cc1 (stereo not shown) [SJ000556760-1, IBUTILIDE FUMARATE]	–	–	–	–	–	–	–	–	2.977	2.78	2.626	6.024	0.3403	3.1	0.6889	-1.379
COC(C)(C)CCCC(C)C/C=C/C(C)=C/C(=O)O (stereo not shown) [SJ000561041-1, METHOPRENE ACID]	–	–	–	–	–	–	–	–	2.394	-0.2291	-0.01315	30.54	-2.29	6.95	1.555	-0.2588
O=Cc1c2[nH]c3ccccc3c2cc2[nH]c3ccccc3c12 [SJ000561043-1, 6-FORMYLINDOLO [3,2-B] CARBAZOLE]	–	–	–	–	–	–	–	–	0.1175	3.515	1.501	8.34	2.828	15.88	-0.0231	1.695
CC(C)(O)[C@H]1O[C@H]2CC[C@@]3(C)[C@@](O)(CC[C@H]4Cc5c([nH]c6ccccc56)[C@@]43C)C2=CC1=O [SJ000561050-1, PAXILLINE]	–	–	–	–	–	–	–	–	7.96	-0.09318	2.78	3.611	1.09	1.599	7.084	3.934
CC(C)[C@@H](O)CC[C@@H](C)[C@H]1CC[C@H]2[C@@H]3CC=C4C[C@@H](O)CC[C@]4(C)[C@H]3CC[C@]12C [SJ000561051-1, 24(S)-HYDROXYCHOLESTEROL]	–	–	–	–	–	–	–	–	-0.3911	-2.462	-1.323	-3.422	-2.331	-0.7822	-0.5103	0.6767
C[C@H](CC[C@@H]1OC1(C)C)[C@H]1CC[C@H]2[C@@H]3CC=C4C[C@@H](O)CC[C@]4(C)[C@H]3CC[C@]12C [SJ000561052-1, 24(S),25-EPOXYCHOLESTEROL]	–	–	–	–	–	–	–	–	11.77	0.1627	-3.183	7.379	1.576	-1.379	-2.032	-2.235
CC(C)=CCC[C@]1(C)[C@@H](CC=C(C)C)C[C@@]2(CC=C(C)C)C(=O)[C@]1(C(=O)C(C)C)C(=O)C(CC=C(C)C)=C2O [SJ000561062-1, HYPERFORIN]	–	–	–	–	–	–	–	–	3.171	1.526	0.05204	6.256	-0.1771	2.302	1.156	4.019
C=CC[C@@H]1[C@H](O)CC[C@@]2(C)[C@H]1CC[C@@H]1[C@@H]2CC[C@]2(C)[C@@H]([C@H](C)CCCC(C)C)CC[C@@H]12 [SJ000561065-1, LY 295427]	–	–	–	–	–	–	–	–	-3.189	2.452	1.105	-1.753	-1.154	0.6492	1.28	0.971
CC(C)=CCC/C(C)=C/CC/C(C)=C/CC/C(C)=C/CO [SJ000561066-1, GERANYLGERANIOL]	–	–	–	–	–	–	–	–	-0.4924	0.9105	-0.5636	0.138	3.121	1.567	2.958	1.709
CC1=C(/C=C/C(C)=C/C=C/C(C)=C/C(=O)O)C(C)(C)CCC1O (stereo not shown) [SJ000561070-1, 4-HYDROXYRETINOIC ACID]	–	–	–	–	–	–	–	–	1.361	7.941	7.362	-3.112	38.35	34.76	18.11	5.11
CCC1(CC)C(=O)NC(=O)N(C)C1=O [SJ000562691-1, METHARBITAL]	–	–	–	–	–	–	–	–	-5.926	-1.141	-1.73	3.211	-4.139	0.7749	-1.698	-0.4535
N=C1NC(=O)N2CC12 (stereo not shown) [SJ000564440-1, IMEXON]	–	–	–	–	–	–	–	–	-0.6297	3.11	4.482	28.3	13.09	2.121	11.23	2.993
CC(C)C(=O)OCC(=O)[C@@]12O[C@H](C3CCCCC3)O[C@@H]1C[C@H]1[C@@H]3CCC4=CC(=O)C=C[C@]4(C)[C@H]3[C@@H](O)C[C@@]12C [SJ000565158-1, CICLESONIDE]	2.034	-1.566	4.252	0.4753	-0.07433	-5.442	-2.58	-1.054	–	–	–	–	–	–	–	–
